Measured values from patent publication US20260207560A1, “PLURALITY OF GRANULES” (priority 2022, published 2026).
“And” between values parts separate entries of the source, which are not always exact repeats. Equal values may be shown once. Marks after values point to notes of the source that are not given here.

Columns and labels:
[1] = Compatibility of active ingredient with HPMC and gelatin capsule shells (assay, related substances); type: physicochemical; settings: for Assay (%): single vials
Method: Binary mixtures of the active ingredient with the capsules shells were made as follows: • An active ingredient doping solution (active ingredient dissolved in ethanol) was made ([…]). A 100 μL aliquot of this doping was used to ‘spike’ the 10 vials of each capsule shell type as described in Table 5. The nominal quantity of active ingredient per vial was therefore 50 μg. • No doping solution was added to the three control vials of the excipient. • The active vials were left open overnight to evaporate all the ethanol, before closing the vials. • Both the active and placebo control vials were placed on stability for up to 28 days at 25° C. and 50° C.

[2] = Forced degradation study of the active substance (HPLC assay, observations)
[3] = Gelatin capsule shell, 50° C., 28 days
[4] = HPMC capsule shell, 25° C., 14 days
[5] = HPMC capsule shell, 25° C., 14 days, listed as active ingredient
[6] = HPMC capsule shell, 25° C., 28 days
[7] = HPMC capsule shell, 25° C., 28 days, listed as active ingredient
[8] = HPMC capsule shell, 50° C., 14 days
[9] = HPMC capsule shell, 50° C., 14 days, listed as active ingredient
[10] = HPMC capsule shell, 50° C., 28 days
[11] = HPMC capsule shell, 50° C., 28 days, listed as active ingredient
[12] = HPMC capsule shell, initial, listed as active ingredient
[13] = Hard Gelatin capsule shell, 25° C., 14 days, listed as active ingredient
[14] = Hard Gelatin capsule shell, 25° C., 28 days, listed as active ingredient
[15] = Hard Gelatin capsule shell, 50° C., 14 days
[16] = Hard Gelatin capsule shell, 50° C., 14 days, listed as active ingredient
[17] = Hard Gelatin capsule shell, 50° C., 28 days
[18] = Hard Gelatin capsule shell, 50° C., 28 days, listed as active ingredient
[19] = Hard Gelatin capsule shell, initial
[20] = Hard Gelatin capsule shell, initial, listed as active ingredient

Structure (SMILES): CCS(=O)(=O)Nc1ccc2c(c1)nc(C(C)(C)C)n2CC1CCC(F)(F)CC1 [Compound I, N-(2-(tert-butyl)-1-((4,4-difluorocyclohexyl)methyl)-1H-benzimidazol-5-yl)ethanesulfonamide]
- Assay (%), mean ([1]; Gelatin capsule shell, 25° C., 14 days): 98.1%
- Assay (%) ([1]; Gelatin capsule shell, 25° C., 14 days, listed as active ingredient): 98.9% and 97.4%
- Assay (%), mean ([1]; Gelatin capsule shell, 25° C., 28 days): 99.1%
- Assay (%) ([1]; Gelatin capsule shell, 25° C., 28 days, listed as active ingredient): 98.8% and 99.4%
- Assay (%), mean ([1]; Gelatin capsule shell, 50° C., 14 days): 99.3%
- Assay (%) ([1]; Gelatin capsule shell, 50° C., 14 days, listed as active ingredient): 99.3% and 99.4%
- Assay (%), mean [1, 3]: 89.3%
- Assay (%) [1, 3]: 99.4%
- Assay (%), mean ([1]; Gelatin capsule shell, initial): 99.6%
- Assay (%) ([1]; Gelatin capsule shell, initial, listed as active ingredient): 99.0% and 100.2%
- Assay (%), mean [1, 4]: 95.8%
- Related substance RRT 1.04 [1, 4]: 0.08%
- Related substance RRT 1.10 [1, 4]: 0.09%
- Related substance RRT 0.92 [1, 5]: 0.08% and 0.07%
- Related substance RRT 0.98 [1, 5]: 0.31% and 0.32%
- Related substance RRT 1.35 [1, 5]: 0.13% and 0.12%
- Related substance RRT 1.36 [1, 5]: 0.13% and 0.12%
- Related substances total [1, 5]: 0.82% and 0.80%
- Assay (%) [1, 4]: 98.9%
- Assay (%), mean [1, 6]: 99.1%
- Related substance RRT 0.92 [1, 6]: 0.08%
- Related substance RRT 1.04 [1, 6]: 0.07%
- Related substances total [1, 6]: 0.79%
- Related substance RRT 0.98 [1, 7]: 0.3% and 0.31%
- Related substance RRT 1.10 [1, 7]: 0.09% and 0.08%
- Related substance RRT 1.35 [1, 7]: 0.12% and 0.13%
- Related substance RRT 1.36 [1, 7]: 0.12% and 0.13%
- Assay (%) [1, 7]: 99.3% and 99.0%
- Assay (%), mean [1, 8]: 98.8%
- Related substance RRT 0.97 [1, 8]: 0.67* %
- Related substance RRT 1.04 [1, 8]: 0.07%
- Related substance RRT 1.10 [1, 8]: 0.09%
- Related substance RRT 1.36 [1, 8]: 0.12%
- Related substance RRT 0.92 [1, 9]: 0.07% and <0.05%
- Related substance RRT 0.98 [1, 9]: 0.30% and 0.29%
- Related substance RRT 1.35 [1, 9]: 0.13% and 0.12%
- Related substances total [1, 9]: 0.79% and 1.37%
- Assay (%) [1, 9]: 98.9% and 98.7%
- Assay (%), mean [1, 10]: 98.9%
- Related substance RRT 0.92 [1, 10]: 0.07%
- Related substance RRT 1.35 [1, 10]: 0.12%
- Related substance RRT 0.98 [1, 11]: 0.31% and 0.32%
- Related substance RRT 1.04 [1, 11]: 0.07% and 0.09%
- Related substance RRT 1.10 [1, 11]: 0.09% and 0.10%
- Related substance RRT 1.36 [1, 11]: 0.12% and 0.13%
- Related substances total [1, 11]: 0.79% and 0.83%
- Assay (%) [1, 11]: 98.8% and 98.9%
- Assay (%), mean ([1]; HPMC capsule shell, initial): 97.8%
- Related substance RRT 1.04 ([1]; HPMC capsule shell, initial): 0.07%
- Related substance RRT 1.35 ([1]; HPMC capsule shell, initial): 0.13%
- Related substance RRT 1.36 ([1]; HPMC capsule shell, initial): 0.13%
- Related substance RRT 0.92 [1, 12]: 0.08% and 0.07%
- Related substance RRT 0.98 [1, 12]: 0.3% and 0.31%
- Related substance RRT 1.10 [1, 12]: 0.09% and 0.10%
- Related substances total [1, 12]: 0.81% and 0.82%
- Assay (%) [1, 12]: 96.5% and 99.0%
- Degradation of the active ingredient (from % assay) ([1]; HPMC or gelatin capsules, all conditions and timepoints): no degradation
- Related substance RRT 1.35 ([1]; Hard Gelatin capsule shell, 25° C., 14 days): 0.07%
- Related substance RRT 0.92 [1, 13]: 0.05% and <0.05%
- Related substance RRT 0.98 [1, 13]: 0.22% and 0.18%
- Related substance RRT 1.04 [1, 13]: 0.05% and <0.05%
- Related substance RRT 1.10 [1, 13]: 0.10% and 0.09%
- Related substance RRT 1.36 [1, 13]: 0.07% and 0.08%
- Related substances total [1, 13]: 0.56% and 0.42%
- Related substance RRT 1.04 ([1]; Hard Gelatin capsule shell, 25° C., 28 days): <0.05%
- Related substance RRT 0.92 [1, 14]: 0.05% and <0.05%
- Related substance RRT 0.98 [1, 14]: 0.18% and 0.14%
- Related substance RRT 1.10 [1, 14]: 0.08% and 0.09%
- Related substance RRT 1.35 [1, 14]: 0.07% and 0.06%
- Related substance RRT 1.36 [1, 14]: 0.08% and 0.07%
- Related substances total [1, 14]: 0.47% and 0.36%
- Related substance RRT 0.92 [1, 15]: <0.05%
- Related substance RRT 1.04 [1, 15]: <0.05%
- Related substance RRT 1.10 [1, 15]: 0.09%
- Related substance RRT 1.35 [1, 15]: 0.06%
- Related substance RRT 1.36 [1, 15]: 0.07%
- Related substance RRT 0.98 [1, 16]: 0.14% and 0.12%
- Related substances total [1, 16]: 0.37% and 0.34%
- Related substance RRT 0.92 [1, 17]: <0.05%
- Related substance RRT 1.04 [1, 17]: <0.05%
- Related substance RRT 1.35 [1, 17]: 0.06%
- Related substance RRT 1.36 [1, 17]: 0.07%
- Related substances total [1, 17]: 0.33%
- Related substance RRT 0.98 [1, 18]: 0.11% and 0.09%
- Related substance RRT 1.10 [1, 18]: 0.09% and 0.11%
- Related substance RRT 1.04 [1, 19]: 0.05%
- Related substance RRT 1.10 [1, 19]: 0.10%
- Related substance RRT 1.36 [1, 19]: 0.08%
- Related substance RRT 0.92 [1, 20]: 0.06% and 0.05%
- Related substance RRT 0.98 [1, 20]: 0.26% and 0.24%
- Related substance RRT 1.35 [1, 20]: 0.08% and 0.07%
- Related substances total [1, 20]: 0.62% and 0.58%
- Total impurities ([1]; both capsule types, all incubation times and temperatures): below 1%
- Sample observations ([2]; Test 1 Control (solution, ambient temperature)): Clear colourless solution. No change over study period.
- Assay of active substance ([2]; Test 1 solution control, 0 days): 99.40 area %
- Assay of active substance ([2]; Test 1 solution control, 3 days): 99.42 area %
- Assay of active substance ([2]; Test 1 solution control, 7 days): 99.30 area %
- Assay of active substance ([2]; Test 1 solution control, 11 days): 99.39 area %
- Sample observations ([2]; Test 2 Solid state 100° C.): Off-white solid turning to very faint orange solid over study
- Assay of active substance ([2]; Test 2 solid state at 100° C., 3 days): 99.43 area %
- Assay of active substance ([2]; Test 2 solid state at 100° C., 7 days): 99.40 area %
- Sample observations ([2]; Test 3 Acid 60° C.): Clear colourless solution. No change over study period.
- Sample observations ([2]; Test 3 Acid (1M, ambient temperature)): Clear colourless solution. No change over study period.
- Assay of active substance ([2]; Test 3 acid (1M) ambient temperature, 3 days): 99.40 area %
- Assay of active substance ([2]; Test 3 acid (1M) ambient temperature, 7 days): 99.41 area %
- Assay of active substance ([2]; Test 3 acid (1M) at 60° C. until day 7, 80° C. until day 11, 11 days): 98.87 area %
- Assay of active substance ([2]; Test 3 acid (1M) at 60° C., 3 days): 99.37 area %
- Assay of active substance ([2]; Test 3 acid (1M) at 60° C., 7 days): 99.35 area %
- Sample observations ([2]; Test 4 Base 40° C.): Clear colourless solution. No change over study period.
- Sample observations ([2]; Test 4 Base (0.5M, ambient temperature)): Clear colourless solution. No change over study period.
- Assay of active substance ([2]; Test 4 base (0.5M) ambient temperature, 3 days): 99.40 area %
- Assay of active substance ([2]; Test 4 base (0.5M) ambient temperature, 7 days): 99.37 area %
- Assay of active substance ([2]; Test 4 base (0.5M) at 60° C. until day 7, 80° C. until day 11, 11 days): 99.16 area %
- Assay of active substance ([2]; Test 4 base (0.5M) at 60° C., 3 days): 99.34 area %
- Assay of active substance ([2]; Test 4 base (0.5M) at 60° C., 7 days): 99.32 area %
- Sample observations ([2]; Test 5 Heat 60° C. (solution)): Clear colourless solution. No change over study period
- Assay of active substance ([2]; Test 5 solution at 60° C. until day 7, 80° C. until day 11, 11 days): 98.00 area %
- Assay of active substance ([2]; Test 5 solution at 60° C., 3 days): 99.13 area %
- Assay of active substance ([2]; Test 5 solution at 60° C., 7 days): 99.34 area %
- Sample observations ([2]; Test 6 Peroxide (1.5%)): Clear colourless solution. No change over study period
- Assay of active substance ([2]; Test 6 peroxide (1.5%), 3 days): 98.50 area %
- Assay of active substance ([2]; Test 6 peroxide (1.5%), 7 days): 97.75 area %
- Assay of active substance ([2]; Test 6 peroxide (1.5%), 13 days): 96.58 area %
- Sample observations ([2]; Test 7 Photostability (Solution Control)): Clear colourless solution. No change over study period.
- Assay of active substance ([2]; Test 7 photocontrol solution): 99.40 area %
- Sample observations ([2]; Test 8 Photostability (Solution Treated)): Clear colourless solution turning to a clear yellow solution
- Assay of active substance ([2]; Test 8 photo treated solution, 1.92 million lux hours, near-UV 374.6 Whm^−2): 74.53 area %
- Sample observations ([2]; Test 9 Photostability (Solid Control)): Off white solid. No change over study period.
- Assay of active substance ([2]; Test 9 photocontrol solid): 99.40 area %
- Sample observations ([2]; Test 10 Photostability (Solid Treated)): Off-white solid turning to very faint orange solid over study
- Assay of active substance ([2]; Test 10 phototreated solid, 1.92 million lux hours, near-UV 374.6 Whm^−2): 99.31 area %
- Forced degradation outcome (summary) ([2]; peroxide, 1M acid, 0.5M base and solution when extended to 80° C.): slight degradation
- Forced degradation outcome (summary) ([2]; solution at room temperature, solid at 100° C., 1M acid and 0.5M base at room temperature and 60° C., solution at 60° C., photostability as a solid): stable to degradation
- Forced degradation outcome (summary) ([2]; solution under photostability conditions): Major degradation
